System: pancreatic cancer
Test: Overall survival of pancreatic cancer patients treated with gemcitabine (reference population, blood taken before treatment)
Type: in vivo, Homo sapiens
Settings: patients treated with gemcitabine who have the genetic pro-metastatic fingerprint
Method: Samples of whole blood from 61 patients, taken before treatment, packaged in PAXgene tubes in dry ice (supplier: LabConnect, United States) were received and stored at −80° C. They were designated “week 0”.
The RNA samples were divided into 2 groups: • M4: corresponding to the patients who received gemcitabine after collection of the reference blood samples, and who died before month 4; • M15: corresponding to the patients who received gemcitabine after collection of the reference blood samples, and were alive after month 15.
An additional pharmacogenomic study was also carried out. Samples of the RNA from blood from 61 patients were taken before any treatment, and they were analysed by RT-PCR.
The patients treated with gemcitabine who have the genetic pro-metastatic fingerprint have a low overall survival rate (OS) (5.0 months).

For `Nc1ccn([C@@H]2O[C@H](CO)[C@@H](O)C2(F)F)c(=O)n1` [Gemcitabine], the overall survival time was 5.0 months.

From patent US20180105881A1, “METHOD FOR DETERMINING THE SURVIVAL PROGNOSIS OF A PATIENT SUFFERING FROM PANCREATIC CANCER” (ACOBIOM, priority 2014, published 2018)
